Legend:
[1] = tested on: C-terminal processing of PHI(1–27); format: biochemical, mouse; conditions: PHI(1–27) with membrane lysate 1 mg/mL in PBS, 37 °C, 15 min, LC-MS; o-phenanthroline 1 mM, phosphoamidon 10 µM
[2] = target: DPP4 (Mus musculus, UniProt P28843); format: biochemical
[3] = human plasma; conditions: cited from earlier work
[4] = plasma; conditions: cited from earlier work

DPP4, sequence (P28843 whole entry): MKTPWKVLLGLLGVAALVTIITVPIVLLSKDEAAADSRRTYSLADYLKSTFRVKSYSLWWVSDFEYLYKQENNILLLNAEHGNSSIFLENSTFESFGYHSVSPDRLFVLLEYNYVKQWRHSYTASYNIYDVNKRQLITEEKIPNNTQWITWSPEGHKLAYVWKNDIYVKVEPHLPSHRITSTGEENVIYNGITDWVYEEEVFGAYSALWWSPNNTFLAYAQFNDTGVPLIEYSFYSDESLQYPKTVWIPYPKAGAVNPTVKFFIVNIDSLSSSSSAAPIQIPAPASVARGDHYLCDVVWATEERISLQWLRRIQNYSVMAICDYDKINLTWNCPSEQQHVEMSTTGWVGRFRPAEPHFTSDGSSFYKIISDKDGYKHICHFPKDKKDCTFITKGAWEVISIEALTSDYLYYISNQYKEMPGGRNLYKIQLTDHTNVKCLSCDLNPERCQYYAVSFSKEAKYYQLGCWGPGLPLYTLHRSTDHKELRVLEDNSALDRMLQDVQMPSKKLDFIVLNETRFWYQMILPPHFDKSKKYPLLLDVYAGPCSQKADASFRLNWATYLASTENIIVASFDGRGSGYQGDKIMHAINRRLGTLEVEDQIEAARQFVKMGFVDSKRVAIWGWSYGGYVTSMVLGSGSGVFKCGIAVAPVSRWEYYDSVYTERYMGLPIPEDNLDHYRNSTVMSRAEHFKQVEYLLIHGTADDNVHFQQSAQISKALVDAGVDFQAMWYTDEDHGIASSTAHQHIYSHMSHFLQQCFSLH

| Compound | effect on C-terminal processing of PHI(1–27) (PHI(1–22) production) [1] | also measured |
| --- | --- | --- |
| c1cnc2c(c1)ccc1cccnc12 [1,10-phenanthroline] | reducing the production of PHI(1–22) | – |
| CNC(=O)[C@H](Cc1c[nH]c2ccccc12)NC(=O)[C@@H](CC(=O)NO)CC(C)C [GM6001] | no impact | – |
| O=S(=O)(F)Cc1ccccc1 [PMSF, phenylmethylsulfonyl fluoride] | – | inhibition of the production of PHI(3–27) (N-terminal processing) [2]: strongly inhibited the production of PHI(3–27) |
| CC(C)C[C@H](NP(=O)(O)O[C@@H]1O[C@@H](C)[C@H](O)[C@@H](O)[C@H]1O)C(=O)N[C@@H](Cc1c[nH]c2ccccc12)C(=O)O [phosphoramidon] | no impact | – |
| HAEGTFTSDVSSYLEGQAAKEFIAWLVKGRG-CONH2 | – | fragment found [3]: GLP-1(9–36); fragment found [4]: GLP-1(9–36), major |
